Each compound was assayed against AaDOP2 (Aedes aegypti, UniProt H6D5H2) (assay: AaDOP2 antagonist screen of the LOPAC1280 library (HEK-CRELuc-Aadop2 cells, luminescence)). Conditions: not given.
AaDOP2, sequence (H6D5H2 1-476): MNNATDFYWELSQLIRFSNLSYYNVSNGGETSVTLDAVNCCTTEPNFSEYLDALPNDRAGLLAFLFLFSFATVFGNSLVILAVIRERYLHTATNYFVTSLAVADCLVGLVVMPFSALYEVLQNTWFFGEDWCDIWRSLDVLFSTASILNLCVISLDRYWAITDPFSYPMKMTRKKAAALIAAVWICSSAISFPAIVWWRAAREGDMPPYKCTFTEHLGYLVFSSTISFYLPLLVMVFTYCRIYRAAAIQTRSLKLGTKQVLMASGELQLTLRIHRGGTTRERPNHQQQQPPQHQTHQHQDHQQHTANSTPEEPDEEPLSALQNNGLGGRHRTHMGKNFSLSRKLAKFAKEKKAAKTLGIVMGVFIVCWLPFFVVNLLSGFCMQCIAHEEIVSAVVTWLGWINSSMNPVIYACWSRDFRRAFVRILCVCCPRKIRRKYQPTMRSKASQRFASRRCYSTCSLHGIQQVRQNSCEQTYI
Type: cell-based
For “2-Methylthioadenosine diphosphate trisodium [Compound 826]”, the “Compound effect (percent receptor signaling in presence of test compound, relative lux units relative to the SCH23390 control)” value was 92. With “2-Methylthioadenosine triphosphate tetrasodium [Compound 120]” the “Compound effect (percent receptor signaling in presence of test compound, relative lux units relative to the SCH23390 control)” value was 99. For “17alpha-hydroxyprogesterone [Compound 593]”, the “Compound effect (percent receptor signaling in presence of test compound, relative lux units relative to the SCH23390 control)” value was 83. In the case of `CCOC(=O)[C@]12CC1/C(=N\O)c1ccccc1O2` (mixture of isomers) [Compound 318, CPCCOEt], the “Compound effect (percent receptor signaling in presence of test compound, relative lux units relative to the SCH23390 control)” value is reported as 58. With `CC(N)(Cc1ccc(O)cc1)C(=O)O` (racemic) [Compound 1, DL-alpha-Methyl-p-tyrosine] the “Compound effect (percent receptor signaling in presence of test compound, relative lux units relative to the SCH23390 control)” value was 95. In the case of `O=C(O)C1CCCNC1` (racemic) [Compound 5, (±)-Nipecotic acid], the “Compound effect (percent receptor signaling in presence of test compound, relative lux units relative to the SCH23390 control)” value is reported as 99. For `NC(CCP(=O)(O)O)C(=O)O` (racemic) [Compound 31, (±)-2-Amino-4-phosphonobutyric acid], the “Compound effect (percent receptor signaling in presence of test compound, relative lux units relative to the SCH23390 control)” value was 124. In the case of `NC(CP(=O)(O)O)C(=O)O` (racemic) [Compound 55, (±)-2-Amino-3-phosphonopropionic acid], the “Compound effect (percent receptor signaling in presence of test compound, relative lux units relative to the SCH23390 control)” value is reported as 102. For `NC(CCCCCP(=O)(O)O)C(=O)O` (racemic) [Compound 57, (±)-2-Amino-7-phosphonoheptanoic acid], the “Compound effect (percent receptor signaling in presence of test compound, relative lux units relative to the SCH23390 control)” value was 93. With `CCC1(c2ccc(N)cc2)CCC(=O)NC1=O` (racemic) [Compound 109, (±)-p-Aminoglutethimide] the “Compound effect (percent receptor signaling in presence of test compound, relative lux units relative to the SCH23390 control)” value was 106. `NC1CCN(O)C1=O` (racemic) [Compound 110, (±)-HA-966] was tested, and the “Compound effect (percent receptor signaling in presence of test compound, relative lux units relative to the SCH23390 control)” value was 107. For `C=CCN1CC[C@@]2(C)c3cc(O)ccc3C[C@@H]1[C@@H]2C.Cl` (racemic) [Compound 131, (±)-N-Allylnormetazocine hydrochloride], the “Compound effect (percent receptor signaling in presence of test compound, relative lux units relative to the SCH23390 control)” value was 105. In the case of `CCCCS(=N)(=O)CCC(N)C(=O)O` (racemic) [Compound 168, DL-Buthionine-[S,R]-sulfoximine], the “Compound effect (percent receptor signaling in presence of test compound, relative lux units relative to the SCH23390 control)” value is reported as 77. With `COC(=O)C1=C(C)NC(C)=C([N+](=O)[O-])C1c1ccccc1C(F)(F)F` (racemic) [Compound 203, (±)-Bay K 8644] the “Compound effect (percent receptor signaling in presence of test compound, relative lux units relative to the SCH23390 control)” value was 73. With `CN(C)CCC(c1ccc(Cl)cc1)c1ccccn1.O=C(O)/C=C\C(=O)O` (racemic) [Compound 243, (±)-Chlorpheniramine maleate] the “Compound effect (percent receptor signaling in presence of test compound, relative lux units relative to the SCH23390 control)” value was 77.

Same assay, conditions: 10 µM compound, 300 nM dopamine, 2 hr; hit = compound effect <20
With `NC[C@H](O)c1ccc(O)c(O)c1.O=C(O)C(O)C(O)C(=O)O` (racemic) [Compound 22, (±)-Norepinephrine (+)bitartrate] the “Compound effect (percent receptor signaling in presence of test compound, relative lux units relative to the SCH23390 control)” value was 102%. For `NC(CCCP(=O)(O)O)C(=O)O` (racemic) [Compound 58, (±)-2-Amino-5-phosphonopentanoic acid], the “Compound effect (percent receptor signaling in presence of test compound, relative lux units relative to the SCH23390 control)” value was 89%. In the case of `N[C@@]1(C(=O)O)CC[C@@H](C(=O)O)C1` (racemic) [Compound 130, trans-(±)-ACPD], the “Compound effect (percent receptor signaling in presence of test compound, relative lux units relative to the SCH23390 control)” value is reported as 116%. `CN(C)CCC(c1ccc(Br)cc1)c1ccccn1.O=C(O)/C=C\C(=O)O` (racemic) [Compound 165, (±)-Brompheniramine maleate] was tested, and the “Compound effect (percent receptor signaling in presence of test compound, relative lux units relative to the SCH23390 control)” value was 63%. For `NCC(CC(=O)O)c1ccc(Cl)cc1` (racemic) [Compound 177, (±)-Baclofen], the “Compound effect (percent receptor signaling in presence of test compound, relative lux units relative to the SCH23390 control)” value was 111%.

Source: PMC3265452 (PLoS Neglected Tropical Diseases, 2012)
